One assay has as its target T1, SNAP-A3 (Homo sapiens, UniProt P0DMS8).
T1 construct: the methionine start signal was removed from cDNA encoding the full length A3; expressed in transfected cells; host or cells: CHO CRE-SPAP, transient (Fugene HD)
T1 sequence (P0DMS8 2-318 limits assumed): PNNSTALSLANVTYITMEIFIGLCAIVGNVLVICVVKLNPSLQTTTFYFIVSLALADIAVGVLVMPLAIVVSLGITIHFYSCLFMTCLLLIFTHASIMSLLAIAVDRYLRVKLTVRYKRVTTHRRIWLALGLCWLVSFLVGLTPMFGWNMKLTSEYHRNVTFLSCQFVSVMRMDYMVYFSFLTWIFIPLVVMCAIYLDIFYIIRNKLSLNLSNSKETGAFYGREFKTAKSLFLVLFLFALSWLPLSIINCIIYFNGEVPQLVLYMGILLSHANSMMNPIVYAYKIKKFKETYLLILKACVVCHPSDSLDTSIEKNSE
The assay can be described thus: Confocal imaging of SNAP-tagged receptor internalization, SNAP-A3. Conditions: SNAP-A3 transiently expressed in CHO CRE-SPAP cells, BG-AF488 label, 10 μM agonist. In kind it is cell-based. The method, then: CHO-K1 cells stably expressing a cAMP response element-secreted placental alkaline phosphatase (CRE-SPAP) reporter gene (CHO CRE-SPAP) under hygromycin selectivity and CHO-K1 cells stably expressing β-arrestin2-vYnL (CHO β-arrestin2-vYnL, a gift from Dr. N. Holliday, University of Nottingham, Nottingham, UK) were maintained in DMEM/F12 medium containing 10% FCS and 2 mM L-glutamine at 37°C in a humidified atmosphere of air/CO2 (19:1). […] Cell lines were initially screened for YFP or bimolecular fluorescence complementation (BiFC) fluorescence and CRE-SPAP cells lines were subsequently tested in the CRE-SPAP gene transcription assay. […]
Live-cell BiFC imaging was performed on A3-vYc/β-arrestin2-vYnL and A3 W243F-vYc/β-arrestin2-vYnL cells grown in Nunc Labtek 8-well plates, and images obtained using a Zeiss 710 confocal microscope (Carl Zeiss GmbH, Jena, Germany) fitted with a 63× plan-Apochromat NA1.4 Ph3 oil-immersion objective. […] For both YFP, BiFC and BG-AF488 label, a 488 nm argon laser was used to excite the fluorophore and emission was detected using a BP505-530 filter. […] Images of A3-YFP and A3 W243F-YFP cells were taken with same pinhole diameter, laser power, gain and offset to allow comparison of YFP fluorescence. To obtain fluorescence intensity values, a region of interest was drawn around the plasma membrane of 10 cells per image in Zeiss AIM 4.2 software (Carl Zeiss GmbH).

Another assay deals with T2, A3-YFP (Homo sapiens, UniProt P0DMS8).
T2 construct: cDNA encoding the full length human A3 receptor; expressed in transfected cells
T2 sequence (P0DMS8 1-318): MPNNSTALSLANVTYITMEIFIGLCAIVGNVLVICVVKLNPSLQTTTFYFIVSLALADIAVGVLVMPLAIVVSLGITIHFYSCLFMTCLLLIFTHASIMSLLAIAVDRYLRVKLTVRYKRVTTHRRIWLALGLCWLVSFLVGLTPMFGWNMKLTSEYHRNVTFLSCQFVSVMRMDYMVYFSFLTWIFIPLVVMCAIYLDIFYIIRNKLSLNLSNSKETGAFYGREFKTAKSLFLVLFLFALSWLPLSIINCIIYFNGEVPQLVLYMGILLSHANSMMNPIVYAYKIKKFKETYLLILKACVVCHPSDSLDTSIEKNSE
The assay can be described thus: [3H]-cAMP accumulation assay, A3-YFP. The conditions noted are these: for Emax: read-out: Maximum response (% inhibition of 3 μM FSK), cAMP accumulation assay, A3-YFP cells, 1 h stimulation. In kind it is cell-based. The method, then:
On the day of analysis, cells were labelled with [^3H]-adenine (2 μCi·mL^−1) in a total volume of 600 μL per well for 2 h at 37°C/5% CO2 in normal growth medium. After 2 h, the [^3H]-adenine-containing medium was removed; cells washed once in serum-free medium and fresh serum-free medium, containing 10 μM rolipram, added. The required concentration of agonist was added to the appropriate well and cells incubated for 10 min at 37°C. After 10 min, 10 μM FSK was added to all wells, apart from basal wells, and cells were incubated for a further 1 h at 37°C. The assay was terminated by the addition of 50 μL concentrated HCl to each well. The levels of [^3H]-cAMP incorporated were measured by sequential Dowex and alumina chromatography and the efficiency of each column was determined by the recovery of [^14C]-cAMP as described by Donaldson et al. ([1988]).
A basal and FSK control was included in each separate concentration-response CRE-SPAP gene transcription assay and cAMP accumulation assay to allow the responses in each cell line to be expressed as an inhibition of FSK-stimulated SPAP production.

For the compound `CCCCC#Cc1nc(NC)c2ncn([C@@H]3O[C@H](CO)[C@@H](O)[C@H]3O)c2n1` [HEMADO, 2-(1-hexynyl)-N-methyladenosine], at SNAP-A3, the “internalization of SNAP-tagged receptor seen in confocal images” value is on record as “clear punctate granules”. Also, the Emax at A3-YFP stood at 80 ± 5.1%. In addition, the EC50 at A3-YFP (read-out: pEC50 (cAMP accumulation assay) (converted)) is 2.4 nM.

Turning to `CCNC(=O)[C@H]1O[C@@H](n2cnc3c(N)ncnc32)[C@H](O)[C@@H]1O` [NECA, 5-(N-ethylcarboxamido)adenosine], the “internalization of SNAP-tagged receptor seen in confocal images” value on SNAP-A3 is “clear punctate granules”. For the same compound, the Emax on A3-YFP is 77.5 ± 6.9%.

The values are drawn from publication PMC4128046, “Effect of a toggle switch mutation in TM6 of the human adenosine A3 receptor on Gi protein-dependent signalling and Gi-independent receptor internalization” (British Journal of Pharmacology, 2014).
